According to publication PMC11881918, “Kir7.1 is the physiological target for hormones and steroids that regulate uteroplacental function” (Science Advances, 2025):
pIC50: −log10 of the molar value.

Key:
Type in all cases: cell-based
murine Kir7.1 = biological target: T1, murine Kir7.1 (Mus musculus, UniProt P86046); assay: whole-cell patch clamp, dose response of current potentiation
T1 construct: gene Kcnj13; recombinant murine Kir7.1 in HEK293 cells
T1 sequence (P86046 1-360): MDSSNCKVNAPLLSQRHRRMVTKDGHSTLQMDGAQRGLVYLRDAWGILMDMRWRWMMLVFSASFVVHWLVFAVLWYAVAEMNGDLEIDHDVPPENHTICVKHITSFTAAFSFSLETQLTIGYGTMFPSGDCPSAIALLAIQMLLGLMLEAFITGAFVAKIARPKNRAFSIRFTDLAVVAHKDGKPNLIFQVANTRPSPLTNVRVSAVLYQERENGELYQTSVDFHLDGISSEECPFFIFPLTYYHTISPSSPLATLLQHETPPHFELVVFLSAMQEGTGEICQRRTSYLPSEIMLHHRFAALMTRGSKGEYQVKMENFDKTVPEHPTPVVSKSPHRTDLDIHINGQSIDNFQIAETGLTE

Kir7.1 (hKir7.1) [1] = biological target: T2, Kir7.1 (hKir7.1) (Homo sapiens, UniProt O60928); assay: whole-cell patch clamp, dose response of current potentiation at -80 mV; set-up: gene KCNJ13; recombinant hKir7.1 (pIRES2-eGFP-hKir7.1) in HEK293 cells and HUtSMCs
T2 sequence (O60928 1-360): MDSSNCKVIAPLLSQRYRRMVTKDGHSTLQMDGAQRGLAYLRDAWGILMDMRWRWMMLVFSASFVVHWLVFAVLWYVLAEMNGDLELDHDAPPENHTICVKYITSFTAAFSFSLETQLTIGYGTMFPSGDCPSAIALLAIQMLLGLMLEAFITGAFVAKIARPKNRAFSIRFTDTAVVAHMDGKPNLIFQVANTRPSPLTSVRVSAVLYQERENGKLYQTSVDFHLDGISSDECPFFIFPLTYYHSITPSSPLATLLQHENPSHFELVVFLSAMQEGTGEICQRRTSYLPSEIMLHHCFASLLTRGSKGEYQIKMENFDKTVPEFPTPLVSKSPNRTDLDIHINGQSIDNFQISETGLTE

Kir7.1 (hKir7.1) [2] = biological target: T2, Kir7.1 (hKir7.1); assay: whole-cell patch clamp, inhibition of P4-activated current; set-up: gene KCNJ13; recombinant hKir7.1 in HEK293 cells

| Compound | EC50 (murine Kir7.1) | EC50 (Kir7.1 (hKir7.1) [1]) | pIC50 (Kir7.1 (hKir7.1) [2]) |
| --- | --- | --- | --- |
| CC(=O)[C@H]1CC[C@H]2[C@@H]3CCC4=CC(=O)CC[C@]4(C)[C@H]3CC[C@]12C [P4, progesterone] | ~ 9.4 and 11.5 μM | ~ 9.4 and 11.5 μM | – |
| C[C@]12CC[C@@H]3c4ccc(O)cc4CC[C@H]3[C@@H]1CC[C@@H]2O [E2, 17β-estradiol] | – | – | 5.07 |
